Results from PubChem BioAssay (NCI).
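Growth conditions: 96-well plates. Treatment: test compound, 48 hours, 5 concentrations. Analysis: linear interpolation between bracketing concentrations; unreached endpoints set to highest concentration. At the TGI there is no net growth.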

Assays:
Experiment in all cases: DTP human tumour cell line panel, 48 h
[1] = test system: HOP-62 NSCLC
[2] = test system: M14 melanoma
[3] = test system: SF-539 CNS
[4] = test system: K-562 leukemia
[5] = test system: HCT-116 colon
[6] = test system: 786-0 renal
[7] = test system: ACHN renal
[8] = test system: KM12 colon
[9] = test system: HOP-92 NSCLC
[10] = test system: SF-268 CNS
[11] = test system: UACC-62 melanoma
[12] = test system: SNB-19 CNS
[13] = test system: HT29 colon
[14] = test system: COLO 205 colon
[15] = test system: UO-31 renal
[16] = test system: RPMI-8226 leukemia
[17] = test system: OVCAR-4 ovarian
[18] = test system: OVCAR-5 ovarian
[19] = test system: UACC-257 melanoma
[20] = test system: NCI-H23 lung
[21] = test system: BT-549 breast
[22] = test system: NCI-H460 lung
[23] = test system: OVCAR-8 ovarian
[24] = test system: HL-60(TB) leukemia
[25] = test system: SK-MEL-28 melanoma
[26] = test system: RXF 393 renal
[27] = test system: OVCAR-3 ovarian
[28] = test system: EKVX NSCLC
[29] = test system: A549 NSCLC
[30] = test system: MOLT-4 leukemia
[31] = test system: CAKI-1 renal
[32] = test system: SR leukemia
[33] = test system: MDA-MB-231 breast
[34] = test system: HS 578T breast
[35] = test system: IGROV1 ovarian
[36] = test system: T-47D breast
[37] = test system: NCI-H226 lung
[38] = test system: U251 CNS
[39] = test system: MCF7 breast
[40] = test system: SF-295 CNS
[41] = test system: SK-OV-3 ovarian
[42] = test system: SN12C renal
[43] = test system: NCI-H522 lung
[44] = test system: DU-145 prostate
[45] = test system: SNB-75 CNS
[46] = test system: LOX IMVI melanoma
[47] = test system: PC-3 prostate
[48] = test system: SK-MEL-5 melanoma
[49] = test system: NCI/ADR-RES ovarian
[50] = test system: A498 renal
[51] = test system: SW-620 colon
[52] = test system: TK-10 renal
[53] = test system: MDA-MB-435
[54] = test system: HCC-2998 colon
[55] = test system: MDA-N
[56] = test system: SK-MEL-2 melanoma
[57] = test system: HCT-15 colon
[58] = test system: MALME-3M melanoma
[59] = test system: CCRF-CEM leukemia

CC(C)(N=NC(C)(C)C(=N)N)C(=N)N
TGI [1]: > 100 µM
TGI [2]: > 100 µM
TGI [3]: > 100 µM
TGI [4]: > 100 µM
TGI [5]: > 100 µM
TGI [6]: > 100 µM
TGI [7]: > 100 µM
TGI [8]: > 100 µM
TGI [9]: > 100 µM
TGI [10]: > 100 µM
TGI [11]: > 100 µM
TGI [12]: > 100 µM
TGI [13]: > 100 µM
TGI [14]: > 100 µM
TGI [15]: > 100 µM
TGI [16]: > 100 µM
TGI [17]: > 100 µM
TGI [18]: > 100 µM
TGI [19]: > 100 µM
TGI [20]: > 100 µM
TGI [21]: > 100 µM
TGI [22]: > 100 µM
TGI [23]: > 100 µM
TGI [24]: > 100 µM
TGI [25]: > 100 µM
TGI [26]: > 100 µM
TGI [27]: > 100 µM
TGI [28]: > 100 µM
TGI [29]: > 100 µM
TGI [30]: > 100 µM
TGI [31]: > 100 µM
TGI [32]: > 100 µM
TGI [33]: > 100 µM
TGI [34]: > 100 µM
TGI [35]: > 100 µM
TGI [36]: > 100 µM
TGI [37]: > 100 µM
TGI [38]: > 100 µM
TGI [39]: > 100 µM
TGI [40]: > 100 µM
TGI [41]: > 100 µM
TGI [42]: > 100 µM
TGI [43]: > 100 µM
TGI [44]: > 100 µM
TGI [45]: > 100 µM
TGI [46]: > 100 µM
TGI [47]: > 100 µM
TGI [48]: > 100 µM
TGI [49]: > 100 µM
TGI [50]: > 100 µM
TGI [51]: > 100 µM
TGI [52]: > 100 µM
TGI [53]: > 100 µM
TGI [54]: > 100 µM
TGI [55]: > 100 µM
TGI [56]: > 100 µM
TGI [57]: > 100 µM

COc1cc(OC)cc(C(=O)NC2=C(Cl)C(=O)c3ccccc3C2=O)c1
TGI [1]: 27.8 µM
TGI [2]: 6.67 µM
TGI [3]: 18.5 µM
TGI [4]: 4.01 µM
TGI [5]: 2.35 µM
TGI [7]: 2.83 µM
TGI [8]: 10.4 µM
TGI [9]: 2.89 µM
TGI [10]: 12.8 µM
TGI [11]: 1.22 µM
TGI [12]: 21.9 µM
TGI [13]: 10.9 µM
TGI [14]: 15.6 µM
TGI [15]: 9.42 µM
TGI [16]: > 21.7 µM
TGI [17]: 6.01 µM
TGI [18]: 16.6 µM
TGI [19]: 6.2 µM
TGI [20]: 7.93 µM
TGI [21]: 9.22 µM
TGI [22]: 9.24 µM
TGI [23]: 17.6 µM
TGI [25]: 19 µM
TGI [26]: 4.09 µM
TGI [27]: 5.54 µM
TGI [28]: > 39.6 µM
TGI [29]: > 38.3 µM
TGI [30]: 6.12 µM
TGI [31]: 17.7 µM
TGI [32]: > 23.1 µM
TGI [33]: 29.2 µM
TGI [34]: 24.4 µM
TGI [35]: 12.9 µM
TGI [36]: 3.51 µM
TGI [37]: 12 µM
TGI [38]: 9.42 µM
TGI [39]: 8.73 µM
TGI [40]: 9.91 µM
TGI [41]: 11.2 µM
TGI [42]: 13.1 µM
TGI [43]: 2.47 µM
TGI [44]: 16.8 µM
TGI [45]: 12.3 µM
TGI [46]: 5.14 µM
TGI [58]: 3.31 µM
TGI [47]: 10.9 µM
TGI [48]: 5.35 µM
TGI [49]: 11.9 µM
TGI [50]: 27.1 µM
TGI [51]: 2.65 µM
TGI [52]: 7.68 µM
TGI [53]: 4.48 µM
TGI [54]: 13.8 µM
TGI [55]: 5.13 µM
TGI [56]: 4.01 µM
TGI [59]: 3.99 µM
TGI [57]: 10.4 µM
